From patent US11542254B2, “Methods and composition of 4-substituted benzoylpiperazine-1-substituted carbonyls as beta-catenin/B-cell lymphoma 9 inhibitors” (University of Utah Research Foundation, priority 2016, dated 2023)
Where a name gives a salt, the structure may show the parent alone.

target: β-catenin/BCL9 PPI (Homo sapiens (Human), UniProt P35222); test: AlphaScreen competitive inhibition assay, wild-type β-catenin/BCL9 PPI; type: binding; details: 500 μM, AlphaScreen
Protocol: Cells were cultured in LB medium with 30 μg/mL kanamycin until the OD600 was approximately 0.8, and then protein expression was induced with 400 μM of IPTG at 20° C. overnight. Cells were lysed by sonication. […] Native non-denaturing gel electrophoresis was performed to confirm the homogeneity of the purified proteins. Thermal-shift assay was performed on an iCycler iQ Real Time Detection System (Bio-Rad) to monitor protein stability and detect protein aggregation. Protein unfolding was evaluated through measuring the fluorescence changes of fluorescent dye Sypro Orange when interacting with wild-type or mutant β-catenin proteins. A temperature increment of 1°/min was applied. […] All spectra were recorded at room temperature, and the baseline control containing all of the substances except protein. Sample were prepared at a concentration around 1-5 μM in a buffer of 10 mM potassium phosphate and 100 mM potassium fluoride at pH 7.0 to ensure that the transmission of light through the sample was not restricted. […] Proteins were aliquoted and stored at −80° C.
25. Alphascreen Competitive Inhibition Assays Using Wild-Type and Mutant β-Catenin Proteins

Sequence of β-catenin/BCL9 PPI (P35222 138-686): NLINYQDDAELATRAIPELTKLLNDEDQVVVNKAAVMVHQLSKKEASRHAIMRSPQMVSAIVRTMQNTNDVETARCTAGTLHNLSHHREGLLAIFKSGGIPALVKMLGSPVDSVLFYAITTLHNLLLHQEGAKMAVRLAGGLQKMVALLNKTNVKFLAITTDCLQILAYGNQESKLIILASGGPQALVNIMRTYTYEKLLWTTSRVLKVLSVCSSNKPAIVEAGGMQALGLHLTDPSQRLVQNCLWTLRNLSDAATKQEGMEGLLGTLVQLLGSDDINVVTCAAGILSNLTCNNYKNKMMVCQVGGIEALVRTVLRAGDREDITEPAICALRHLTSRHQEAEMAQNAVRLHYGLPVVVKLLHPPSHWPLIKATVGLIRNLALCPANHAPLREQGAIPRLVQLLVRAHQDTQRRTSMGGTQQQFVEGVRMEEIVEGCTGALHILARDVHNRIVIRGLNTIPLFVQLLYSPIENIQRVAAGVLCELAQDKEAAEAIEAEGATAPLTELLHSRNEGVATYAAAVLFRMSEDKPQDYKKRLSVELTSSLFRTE

Structure (SMILES)	inhibition of β-catenin/BCL9 PPI at the highest concentration tested
Cl.Cl.NCCc1cc(F)cc(C(=O)N2CCN(C(=O)c3cnc(O[C@H]4CCNC4)c(-c4ccc(F)cc4)c3)CC2)c1 [Compound 4, (S)-(4-(3-(2-Aminoethyl)-5-fluorobenzoyl)piperazin-1-yl)(5-(4-fluorophenyl)-6-(pyrrolidin-3-yloxy)pyridin-3-yl)methanone hydrochloride]	no obvious inhibition

same assay, conditions: wild-type β-catenin/BCL9 PPI, AlphaScreen competitive inhibition, mean ± SD (n=3)

Structure (SMILES)	Ki
CC(C)C[C@H]1CN(C(=O)c2cc(F)cc(N3CCNCC3)c2)CCN1C(=O)c1ccc(O[C@H]2CCNC2)c(-c2ccc(F)cc2)c1 [Compound 68, 4-(3-Fluoro-5-((5)-4-(4′-fluoro-6-(((S)-pyrrolidin-1-ium-3-yl)oxy)-[1,1′-biphenyl]-3-carbonyl)-3-isobutylpiperazine-1-carbonyl)phenyl)piperazin-1-ium chloride]	22 µM
O=C(c1cc(Br)cc(N2CCNCC2)c1)N1CCN(C(=O)c2ccc(O[C@H]3CCNC3)c(C3CCCCC3)c2)CC1 [Compound 21, (S)-(4-(3-Bromo-5-(piperazin-1-yl)benzoyl)piperazin-1-yl)(3-cyclohexyl-4-(pyrrolidin-3-yloxy)phenyl)methanone hydrochloride]	55 ± 2.7 µM
CC[C@H]1CN(C(=O)c2cc(F)cc(N3CCNCC3)c2)CCN1C(=O)c1ccc(O[C@H]2CCNC2)c(-c2ccc(F)cc2)c1 [Compound 63, 4-(3-((S)-3-Ethyl-4-(4′-fluoro-6-(((S)-pyrrolidin-1-ium-3-yl)oxy)-[1,1′-biphenyl]-3-carbonyl)piperazine-1-carbonyl)-5-fluorophenyl)piperazin-1-ium chloride]	10 ± 10 µM
O=C(c1cc(F)cc(O[C@@H]2CCNC2)c1)N1CCN(C(=O)c2ccc(O[C@H]3CCNC3)c(-c3ccc(F)cc3)c2)CC1 [Compound 7, (4-(3-Fluoro-5-(((R)-pyrrolidin-3-yl)oxy)benzoyl)piperazin-1-yl) (4′-fluoro-6-(((S)-pyrrolidin-3-yl)oxy)-[1,1′-biphenyl]-3-yl) methanone hydrochloride]	35 ± 9.6 µM
Cl.Cl.NCCc1cc(F)cc(C(=O)N2CCN(C(=O)c3cnc(O[C@H]4CCNC4)c(-c4ccc(F)cc4)c3)CC2)c1 [Compound 4, (S)-(4-(3-(2-Aminoethyl)-5-fluorobenzoyl)piperazin-1-yl)(5-(4-fluorophenyl)-6-(pyrrolidin-3-yloxy)pyridin-3-yl)methanone hydrochloride]	> 500 µM
O=C(c1cc(F)cc(N2CCNCC2=O)c1)N1CCN(C(=O)c2ccc(O[C@H]3CCNC3)c(C3CCCCC3)c2)CC1 [Compound 75, (S)-1-(3-(4-(3-Cyclohexyl-4-(pyrrolidin-3-yloxy)benzoyl)piperazine-1-carbonyl)-5-fluorophenyl)piperazin-2-one hydrochloride]	39 ± 7 µM
Cl.Cl.O=C(c1cc(F)cc(N2CCNCC2)c1)N1CCN(C(=O)c2cnc(O[C@H]3CCNC3)c(-c3ccc(F)cc3)c2)CC1 [Compound 3, (S)-(4-(3-Fluoro-5-(piperazin-1-yl)benzoyl)piperazin-1-yl)(5-(4-fluorophenyl)-6-(pyrrolidin-3-yloxy)pyridin-3-yl)methanone hydrochloride]	82 ± 12 µM
O=C(c1cc(F)cc(N2CCNCC2)c1)N1CCN(C(=O)c2ccc(O[C@H]3CCNC3)c(C3CCC(F)(F)CC3)c2)CC1 [Compound 16, (S)-(4-(3-(4,4-Difluorocyclohexyl)-4-(pyrrolidin-3-yloxy)benzoyl)piperazin-1-yl)(3-fluoro-5-(piperazin-1-yl)phenyl)methanone hydrochloride]	53 ± 22 µM
Cc1cc(C(=O)N2CCN(C(=O)c3cc(F)cc(N4CCNCC4)c3)CC2)ccc1O[C@H]1CCNC1 [Compound 17, (S)-(4-(3-Fluoro-5-(piperazin-1-yl)benzoyl)piperazin-1-yl)(3-methyl-4-(pyrrolidin-3-yloxy)phenyl) methanone hydrochloride]	490 ± 150 µM
O=C(c1cc(F)cc(N2CCNCC2=O)c1)N1CCN(C(=O)c2ccc(O[C@H]3CCNC3)c(C3CCC(C(F)(F)F)CC3)c2)CC1 (stereo partly drawn) [Compound 76, (S)-1-(3-Fluoro-5-(4-(4-(pyrrolidin-3-yloxy)-3-(4-(trifluoromethyl)cyclohexyl)benzoyl)piperazine-1-carbonyl)phenyl)piperazin-2-one hydrochloride]	14 ± 3.6 µM
Cc1cc(C(=O)N2CCN(C(=O)c3ccc(O[C@H]4CCNC4)c(C4CCCCC4)c3)CC2)cc(N2CCNCC2)c1 [Compound 19, (S)-(4-(3-Cyclohexyl-4-(pyrrolidin-3-yloxy)benzoyl)piperazin-1-yl) (3-methyl-5-(piperazin-1-yl)phenyl)methanone hydrochloride]	25 ± 1.7 µM
NCCc1cc(F)cc(C(=O)N2CCN(C(=O)c3ccc(O[C@H]4CCNC4)c(-c4ccc(F)cc4)c3)CC2)c1 [Compound 5, (S)-(4-(3-(2-Aminoethyl)-5-fluorobenzoyl)piperazin-1-yl)(4′-fluoro-6-(pyrrolidin-3-yloxy)-[1,1′-biphenyl]-3-yl)methanone hydrochloride]	67 ± 13 µM
O=C(c1cc(F)cc(C2CCNCC2)c1)N1CCN(C(=O)c2ccc(O[C@H]3CCNC3)c(-c3ccc(F)cc3)c2)CC1 [Compound 8, (S)-(4-(3-Fluoro-5-(piperidin-4-yl)benzoyl)piperazin-1-yl)(4′-fluoro-6-(pyrrolidin-3-yloxy)-[1,1′-biphenyl]-3-yl)methanone hydrochloride]	20 ± 2.3 µM
CC1(C)CCC(c2cc(C(=O)N3CCN(C(=O)c4cc(F)cc(N5CCNCC5)c4)CC3)ccc2O[C@H]2CCNC2)CC1 [Compound 15, (S)-(4-(3-(4,4-Dimethylcyclohexyl)-4-(pyrrolidin-3-yloxy)benzoyl)piperazin-1-yl) (3-fluoro-5-(piperazin-1-yl)phenyl) methanone hydrochloride]	45 ± 6.7 µM
C[C@H]1CN(C(=O)c2cc(F)cc(N3CCNCC3)c2)CCN1C(=O)c1ccc(O[C@H]2CCNC2)c(-c2ccc(F)cc2)c1 [Compound 62, 4-(3-Fluoro-5-((S)-4-(4′-fluoro-6-(((S)-pyrrolidin-1-ium-3-yl)oxy)-[1,1′-biphenyl]-3-carbonyl)-3-methylpiperazine-1-carbonyl)phenyl)piperazin-1-ium chloride]	110 ± 50 µM
O=C(c1cc(N2CCNCC2)cc(C(F)(F)F)c1)N1CCN(C(=O)c2ccc(O[C@H]3CCNC3)c(C3CCCCC3)c2)CC1 [Compound 20, (S)-(4-(3-Cyclohexyl-4-(pyrrolidin-3-yloxy)benzoyl)piperazin-1-yl) (3-(piperazin-1-yl)-5-(trifluoromethyl)phenyl) methanone hydrochloride]	69 ± 8.7 µM
O=C(c1cc(F)cc(O[C@H]2CCNC2)c1)N1CCN(C(=O)c2ccc(O[C@H]3CCNC3)c(-c3ccc(F)cc3)c2)CC1 [Compound 6, (4-(3-Fluoro-5-(((S)-pyrrolidin-3-yl)oxy)benzoyl)piperazin-1-yl) (4′-fluoro-6-(((S)-pyrrolidin-3-yl)oxy)-[1,1′-biphenyl]-3-yl) methanone hydrochloride]	48 ± 11 µM
O=C(c1cc(Cl)cc(N2CCNCC2)c1)N1CCN(C(=O)c2ccc(O[C@H]3CCNC3)c(C3CCCCC3)c2)CC1 [Compound 18, (S)-(4-(3-Chloro-5-(piperazin-l-yl)benzoyl)piperazin-1-yl)(3-cyclohexyl-4-(pyrrolidin-3-yloxy)phenyl)methanone hydrochloride]	76 ± 9.9 µM
O=C(c1cc(F)cc(N2CCNCC2)c1)N1CCN(C(=O)c2ccc(O[C@H]3CCNC3)c(C3CCC(C(F)(F)F)CC3)c2)CC1 (stereo partly drawn) [Compound 13, (S)-(4-(3-Fluoro-5-(piperazin-1-yl)benzoyl)piperazin-1-yl)(4-(pyrrolidin-3-yloxy)-3-(4-(trifluoromethyl)cyclohexyl)phenyl)methanone hydrochloride]	170 ± 7.5 µM
O=C(c1cc(F)cc(N2CCNCC2)c1)N1CCN(C(=O)c2ccc(O[C@H]3CCNC3)c(C3CCCC3)c2)CC1 [Compound 11, (S)-(4-(3-Cyclopentyl-4-(pyrrolidin-3-yloxy)benzoyl)piperazin-1-yl)(3-fluoro-5-(piperazin-1-yl)phenyl)methanone hydrochloride]	37 ± 8 µM
CC(C)[C@H]1CN(C(=O)c2cc(F)cc(N3CCNCC3)c2)CCN1C(=O)c1ccc(O[C@H]2CCNC2)c(-c2ccc(F)cc2)c1 [Compound 64, 4-(3-Fluoro-5-((5)-4-(4′-fluoro-6-(((S)-pyrrolidin-1-ium-3-yl)oxy)-[1,1′-biphenyl]-3-carbonyl)-3-isopropylpiperazine-1-carbonyl)phenyl)piperazin-1-ium chloride]	45 µM
Cl.Cl.O=C(c1cc(F)cc(N2CCNCC2)c1)N1CCN(C(=O)c2ccc(O[C@H]3CCNC3)c(-c3ccc(F)c(F)c3)c2)CC1 [Compound 9, (S)-(4-(3′,4′-Difluoro-6-(pyrrolidin-3-yloxy)-[1,1′-biphenyl]-3-carbonyl)piperazin-1-yl)(3-fluoro-5-(piperazin-1-yl)phenyl) methanone hydrochloride]	57 ± 33 µM
NCCOc1ccc(C(N)=O)cc1-c1ccc(F)cc1 [Compound 1, 2-((5-carbamoyl-4′-fluoro-[1,1′-biphenyl]-2-yl)oxy)ethan-1-aminium chloride]	130 ± 6.9 µM

same assay, conditions: wild-type β-catenin/BCL9 PPI, compared with compound 2

Structure (SMILES)	AlphaScreen Ki relative to compound 2 (higher / worse)
Cl.Cl.O=C(c1cc(F)cc(N2CCNCC2)c1)N1CCN(C(=O)c2cnc(O[C@H]3CCNC3)c(-c3ccc(F)cc3)c2)CC1 [Compound 3, (S)-(4-(3-Fluoro-5-(piperazin-1-yl)benzoyl)piperazin-1-yl)(5-(4-fluorophenyl)-6-(pyrrolidin-3-yloxy)pyridin-3-yl)methanone hydrochloride]	4 fold
Cl.Cl.O=C(c1cc(F)cc(N2CCNCC2)c1)N1CCN(C(=O)c2ccc(O[C@H]3CCNC3)c(-c3ccc(F)c(F)c3)c2)CC1 [Compound 9, (S)-(4-(3′,4′-Difluoro-6-(pyrrolidin-3-yloxy)-[1,1′-biphenyl]-3-carbonyl)piperazin-1-yl)(3-fluoro-5-(piperazin-1-yl)phenyl) methanone hydrochloride]	approximately 3 fold
